US8420657B2 (Novartis AG, priority 2008, dated 2013)
pIC50: −log10 of the molar value.

Columns and labels:
GST-JAK2(808-1132) = molecular target: T1, GST-JAK2(808-1132) (Homo sapiens, UniProt O60674); assay: JAK2 kinase assay (Caliper mobility shift, LabChip 3000); format: biochemical
T1 construct: GST-JAK2(808-1132); purchased Invitrogen (Carlsbad, USA) #4288
How it was run: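 Recombinant GST-JAK2(808-1132) kinase domain with FITC-labelled JAK3tide peptide substrate and ATP; 60 min at 30 °C, EDTA stop. Substrate/product ratio read by microfluidic mobility shift; compounds at 8 final concentrations, 10 to 0.003 μM.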

[1] = tested on: JAK1/JAK2-dependent nuclear translocation of STAT1-GFP in HT1080 fibrosarcoma cells; assay: STAT1 nuclear translocation assay (Cellomics), IFN-γ stimulated HT1080 STAT1-GFP cells; format: cell-based
Text: The medium-throughput (96-well format) cellular automated fluorescence microscopy Cellomics assay can be routinely used to assess the functional activation of Janus Kinases (JAKs), based on the nuclear translocation of their substrate, Signal Transducer and Activator of Transcription (STAT). Nuclear translocation can be monitored either in HT1080 fibrosarcoma cells stably transfected with STAT1 fused to Green Fluorescence Protein (GFP) or in U-2 OS osteosarcoma cells stably transfected with STAT5 fused to Green Fluorescence Protein (GFP). Stimulation of HT1080 cells with interferon-γ (IFN-γ) results in JAK1/JAK2-dependent nuclear translocation of STAT1-GFP, whereas stimulation of U-2 OS cells with recombinant human erythropoietin (rhEpo) results in JAK2-dependent nuclear translocation of STAT5-GFP, both of which can be quantified using the Cellomics Cyto/NucTrans software package. This assay may be used to provide an assessment of the nuclear-cytoplasmic differential (NCD) of STAT-GFP using Hoechst dye to define the boundaries of the nucleus.
HT1080 fibrosarcoma cells may be obtained from ATCC and can be cultured in alpha Modified Eagle Medium with 10% FCS. Cells can be transfected with pEGFP-N2 STAT1 using Fugene 6 Transfection Reagent following the manufacturers' protocol. 24 hours after transfection the medium can be replaced and selected in 1 mg/ml Geneticin.
Compounds can be dissolved in DMSO to a final stock concentration of 10 mM and stored as aliquots at 4° C. Compounds may be pre-diluted in 100% DMSO at 10 mM, 3 mM 1 mM, 0.3 mM, 0.1 mM, 0.03 mM, 0.01 mM and 0.003 mM. Subsequently, compounds may be diluted in medium and added in 50 μl to the cells. The final compound concentrations tested may be 10 μM, 3 μM 1 μM, 0.3 μM, 0.1 μM, 0.03 μM, 0.01 μM and 0.003 μM and the final DMSO concentration can be 0.1%.
HT1080 STAT1-GFP cells may be seeded at a density of 10,000 cells per well in clear-bottom black 96-well Packard View-Plates™. 16-24 hours later, the cells can be treated for 2 hours with 100 ng/ml IFN-γ, washed twice in pre-warmed PBS and fixed in 200 μl of pre-warmed fixation solution (PBS, 3.7% Formaldehyde) for 10 minutes. The plates may be washed twice in 200 μl PBS and incubated, protected from light, in 100 μl of DNA-staining solution (PBS, 0.5 μg/ml Hoechst-33342) for 1 minute. The plates may then be washed once in PBS, and 200 μl PBS finally added per well. The plates, being finally covered with a black adhesive, may be either read directly or stored at 4° C. for later imaging. Where appropriate, the compounds may be added 30 min before stimulation with IFN-γ.
The plates can be read on a Cellomics® ArrayscanII automated fluorescence microscope plate reader equipped with a Mercury-Xenon white light illumination source and a Zeiss Axiovert inverted microscope, using the XF100 dichroic/emission filter cube and matching excitation filters, 10× magnification, and a 0.3 numerical aperture objective. Image acquisition and analysis can be performed using a customized protocol based on the ‘NuclearTranslocation’ Bioapplication. For each well, multiple images (fields) can be acquired until a minimum of 1000 cells are counted using two 2 channels: Channel 1 (Hoechst)=focus+nuclear mask, Channel 2 (GFP)=signal quantification in mask areas as outlined below. Nuclei may be first identified based on the Hoechst staining and a mask generated for each nucleus that then serves as a template to generate a circle (eroded inwards by 1 pixel) and a 3 pixel-wide collar-like ring (off-set outwards by 1 pixel), in which the nuclear and cytoplasmic intensity of GFP, respectively, are quantified in the corresponding channel. High content analysis yields numerous measurements per cell and the GFP intensity differential between the nuclear and the cytoplasmic masks may be chosen as a measure of sub-cellular STAT-GFP relocation. The resulting values may be averaged for all cells in the well to return a single measurement plus standard deviation. […]

[2] = Homo sapiens, HT-1080, STAT1 translocation pathway

T1 sequence (O60674 808-1132): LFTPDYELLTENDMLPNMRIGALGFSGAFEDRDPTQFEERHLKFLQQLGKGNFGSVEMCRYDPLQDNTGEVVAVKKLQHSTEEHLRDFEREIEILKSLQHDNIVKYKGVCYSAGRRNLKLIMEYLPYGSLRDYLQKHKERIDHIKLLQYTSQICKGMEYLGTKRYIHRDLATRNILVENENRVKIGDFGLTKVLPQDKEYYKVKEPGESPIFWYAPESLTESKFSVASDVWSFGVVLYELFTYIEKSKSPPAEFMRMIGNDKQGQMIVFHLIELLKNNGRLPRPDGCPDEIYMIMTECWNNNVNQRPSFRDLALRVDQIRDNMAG

| pIC50 (GST-JAK2(808-1132)) | pIC50 [1, 2] | pIC50 ([1]; STAT1 translocation pathway) | Structure (SMILES) |
| --- | --- | --- | --- |
| 8.08 | 6.45 |  | CC(C)Oc1ccc(Nc2ncc3ccn(-c4ccc(C(C)N5CCOCC5)cc4)c3n2)cc1 (racemic) [Example 193, (4-Isopropoxy-phenyl)-{7-[4-(1-morpholin-4-yl-ethyl)-phenyl]-7H-pyrrolo[2,3-d]pyrimidin-2-yl}-amine] |
| 8.30 | 6.55 |  | C[C@@H]1CN(Cc2ccc(Nc3ncc4ccn(-c5cc(F)c(CN6CCOCC6)c(F)c5)c4n3)cc2)[C@@H](C)CN1 (racemic) [Example 260, [7-(3,5-Difluoro-4-morpholin-4-ylmethyl-phenyl)-7H-pyrrolo[2,3-d]pyrimidin-2-yl]-[4-((2S,5R)-2,5-dimethyl-piperazin-1-ylmethyl)-phenyl]-amine] |
| 7.92 | 6.74 |  | C[C@@H]1CN(Cc2ccc(Nc3ncc4ccn(-c5cc(F)c(C(=O)N6CCOCC6)c(F)c5)c4n3)cc2)[C@@H](C)CN1 (racemic) [Example 261, (4-{2-[4-((2S,5R)-2,5-Dimethyl-piperazin-1-ylmethyl)-phenylamino]-pyrrolo[2,3-d]pyrimidin-7-yl}-2,6-difluoro-phenyl)-morpholin-4-yl-methanone] |
| 8.00 | 6.33 |  | C[C@@H]1CN[C@@H](C)CN1c1ccc(Nc2ncc3ccn(-c4cc(F)c(C(=O)N5CCOCC5)c(F)c4)c3n2)cn1 (racemic) [Example 269, (4-{2-[6-((2R,5S)-2,5-Dimethyl-piperazin-1-yl)-pyridin-3-ylamino]-pyrrolo[2,3-d]pyrimidin-7-yl}-2,6-difluoro-phenyl)-morpholin-4-yl-methanone] |
| 8.51 | 7.19 |  | C[C@@H]1CN[C@@H](C)CN1c1ccc(Nc2ncc3ccn(-c4cc(F)c(CN5CCOCC5)c(F)c4)c3n2)cn1 (racemic) [Example 271, [7-(3,5-Difluoro-4-morpholin-4-ylmethyl-phenyl)-7H-pyrrolo[2,3-d]pyrimidin-2-yl]-[6-((2R,5S)-2,5-dimethyl-piperazin-1-yl)-pyridin-3-yl]-amine] |
| 8.14 | 6.28 |  | C[C@@H]1CN[C@@H](C)CN1c1ccc(Nc2ncc3ccn(-c4ccc(S(C)(=O)=O)cc4)c3n2)cn1 (racemic) [Example 274, [6-((2R,5S)-2,5-Dimethyl-piperazin-1-yl)-pyridin-3-yl]-[7-(4-methanesulfonyl-phenyl)-7H-pyrrolo[2,3-d]pyrimidin-2-yl]-amine] |
| > 8.52 | 7.36 |  | CCOc1ccc(Nc2ncc3ccn(-c4ccc(S(C)(=O)=O)cc4)c3n2)cc1OCC [Example 1, (3,4-Diethoxy-phenyl)-[7-(4-methanesulfonyl-phenyl)-7H-pyrrolo[2,3-d]pyrimidin-2-yl]-amine] |
| 8.49 | 6.72 |  | CN1CCN(C(=O)c2ccc(Nc3ncc4ccn(-c5cc(F)c(CN6CCOCC6)c(F)c5)c4n3)cc2)CC1 [Example 2, {4-[7-(3,5-Difluoro-4-morpholin-4-ylmethyl-phenyl)-7H-pyrrolo[2,3-d]pyrimidin-2-ylamino]-phenyl}-(4-methyl-piperazin-1-yl)-methanone] |
| 8.03 |  | 7.01 | CC(C)Oc1ccc(Nc2ncc3ccn(-c4ccc(S(C)(=O)=O)cc4)c3n2)cc1 [Example 3, (4-Isopropoxy-phenyl)-[7-(4-methanesulfonyl-phenyl)-7H-pyrrolo[2.3-d]pyrimidin-2-yl]-amine] |
| 8.66 | 7.44 |  | COc1cc(Nc2ncc3ccn(-c4ccc(S(C)(=O)=O)cc4)c3n2)cc(OC)c1OC [Example 4, [7-(4-Methanesulfonyl-phenyl)-7H-pyrrolo[2,3-d]pyrimidin-2-yl]-(3,4,5-trimethoxy-phenyl)-amine] |
| 8.21 | 6.59 |  | COc1ccc(Nc2ncc3ccn(-c4ccc(C(=O)NC(C)(C)C)cc4)c3n2)cc1OC [Example 7, N-tert-Butyl-4-[2-(3,4-dimethoxy-phenylamino)-pyrrolo[2,3-d]pyrimidin-7-yl]-benzamide] |
| > 8.52 | 7.49 |  | COc1cc(Nc2ncc3ccn(-c4ccc(S(=O)(=O)NC(C)(C)C)cc4)c3n2)cc(OC)c1OC [Example 8, N-tert-Butyl-4-[2-(3,4,5-trimethoxy-phenylamino)-pyrrolo[2,3-d]pyrimidin-7-yl]-benzenesulfonamide] |
| 8.42 | 7.49 |  | CCN(CC)C(=O)N1CCN(c2ccc(Nc3ncc4ccn(-c5ccc(S(C)(=O)=O)cc5)c4n3)cc2)CC1 [Example 13, 4-{4-[7-(4-Methanesulfonyl-phenyl)-7H-pyrrolo[2,3-d]pyrimidin-2-ylamino]-phenyl}-piperazine-1-carboxylic acid diethylamide] |
| > 8.52 | 7.60 |  | CN1CCC(c2ccc(Nc3ncc4ccn(-c5ccc(S(C)(=O)=O)cc5)c4n3)cc2)CC1 [Example 16, [7-(4-Methanesulfonyl-phenyl)-7H-pyrrolo[2,3-d]pyrimidin-2-yl]-[4-(1-methyl-piperidin-4-yl)-phenyl]-amine] |
| > 8.52 | 7.69 |  | CN1CCN(c2cccc(Nc3ncc4ccn(-c5ccc(S(C)(=O)=O)cc5)c4n3)c2)CC1 [Example 17, [7-(4-Methanesulfonyl-phenyl)-7H-pyrrolo[2,3-d]pyrimidin-2-yl]-[3-(4-methyl-piperazin-1-yl)-phenyl]-amine] |
| > 8.52 | 7.07 |  | COc1ccc(Nc2ncc3ccn(-c4ccc(S(C)(=O)=O)cc4)c3n2)cc1OCCCN(C)C [Example 27, [3-(3-Dimethylamino-propoxy)-4-methoxy-phenyl]-[7-(4-methanesulfonyl-phenyl)-7H-pyrrolo[2,3-d]pyrimidin-2-yl]-amine] |
| > 8.52 | 7.04 |  | COc1ccc(Nc2ncc3ccn(-c4ccc(S(C)(=O)=O)cc4)c3n2)cc1OCCN1CCOCC1 [Example 29, [7-(4-Methanesulfonyl-phenyl)-7H-pyrrolo[2,3-d]pyrimidin-2-yl]-[4-methoxy-3-(2-morpholin-4-yl-ethoxy)-phenyl]-amine] |
| > 8.52 | 6.69 |  | CS(=O)(=O)c1ccc(-n2ccc3cnc(Nc4ccc(C(=O)N5CCOCC5)cc4)nc32)cc1 [Example 30, {4-[7-(4-Methanesulfonyl-phenyl)-7H-pyrrolo[2,3-d]pyrimidin-2-ylamino]-phenyl}-morpholin-4-yl-methanone] |
| > 8.52 | 7.34 |  | COc1ccc(Nc2ncc3ccn(-c4ccc(S(C)(=O)=O)cc4)c3n2)cc1OCCN1CCCC1 [Example 31, [7-(4-Methanesulfonyl-phenyl)-7H-pyrrolo[2,3-d]pyrimidin-2-yl]-[4-methoxy-3-(2-pyrrolidin-1-yl-ethoxy)-phenyl]-amine] |
| > 8.52 | 7.16 |  | CS(=O)(=O)c1ccc(-n2ccc3cnc(Nc4ccc(OCCN5CCOCC5)cc4)nc32)cc1 [Example 34, [7-(4-Methanesulfonyl-phenyl)-7H-pyrrolo[2,3-d]pyrimidin-2-yl]-[4-(2-morpholin-4-yl-ethoxy)-phenyl]-amine] |
| 8.29 |  |  | Cc1cnn(Cc2cc(Nc3ncc4ccn(-c5cc(F)c(CN6CCOCC6)c(F)c5)c4n3)ccc2C)c1 [Example 481, [7-(3,5-Difluoro-4-morpholin-4-ylmethyl-phenyl)-7H-pyrrolo[2,3-d]pyrimidin-2-yl]-[4-methyl-3-(4-methyl-pyrazol-1-ylmethyl)-phenyl]-amine] |
